Source: patent US8895752B2, “Alkylsulfonyl-substituted thiazolide compounds” (priority 2007, dated 2014)
Where two headings read alike, the source gives them in different places.

Tests used:
[1] = test system: HCV replicon; assay: Primary HCV replicon cell assay; assay type: cell-based, Hepatitis C Virus
Procedure: (§1) Antiviral activity of test compounds was assessed in a 3-day assay using the stably-expressing HCV replicon cell line, AVA5 (sub-genomic CON1, genotype 1b) (Blight et al., 2000) maintained as sub-confluent cultures on 96-well plates as previously described (Okuse et al., 2005). Antiviral activity was determined by blot hybridization analysis of intracellular HCV RNA (normalized to the level of cellular B-actin RNA in each culture sample) and cytotoxicity was assessed by neutral red dye uptake after 3 days of treatment. Additional studies were performed using Huh7 cells containing another HCV replicon, H/FL-Neo, a genotype 1a full length construct (Blight et al., 2003). For studies involving human serum, standard culture medium (which contains 10% fetal bovine serum) and assay conditions were maintained.
(§2) EC50, EC90 and CC50 values (±standard deviations [S.D.]) were calculated by linear regression analysis using data combined from all treated cultures (Korba and Gerin, 1992; Okuse et al., 2005). […] Selectivity index (S.I.) was calculated as CC50/EC90 for HBV assays and CC50/EC50 for HCV assays. EC90 values were used for calculation of the S.I. in HBV assays since at least a […] depression of HBV DNA levels is typically required to achieve statistical significance in this assay system (Korba and Gerin, 1992). For combination treatments, EC50, EC90, CC50 and S.I. are presented for the first compound listed. The molar ratio of the compounds in each combination is also indicated.

[2] = Cytotoxicity by neutral red dye uptake in 2.2.15 cells; conditions: human
Procedure: (§3) HBV antiviral assays were conducted as previous described (Korba and Gerin, 1992).
as §2

[3] = test system: HBV; assay: HBV antiviral assay in confluent 2.2.15 cell cultures (HBV DNA, quantitative blot hybridization); assay type: cell-based, Hepatitis B Virus
[4] = test system: HBV Mutant L180M; assay: 5-day transient transfection assay in Huh7 cells, intracellular HBV RI by Southern blot; assay type: cell-based, Hepatitis B Virus
Procedure: (§4) Activity against LMV-resistant (Allen et al., 1998) and ADV-resistant (Angus et al., 2003) HBV mutants was performed in a 5-day assay using a transient transfection method as previously described (Iyer et al., 2004). Antiviral activity was determined by quantitative Southern blot hybridization of intracellular HBV DNA replication intermediates (HBV RI).

[5] = test system: HBV Mutant M204V; assay: as above; assay type: cell-based, Hepatitis B Virus
Procedure: as §4

[6] = test system: HBV Mutant L180M/M204V; assay: as above; assay type: cell-based, Hepatitis B Virus
Procedure: as §4

[7] = test system: HBV Mutant M204I; assay: as above; assay type: cell-based, Hepatitis B Virus
Procedure: as §4

[8] = test system: HBV Mutant N236T; assay: as above; assay type: cell-based, Hepatitis B Virus
Procedure: as §4

[9] = test system: Wild-type HBV; assay: as above; assay type: cell-based, Hepatitis B Virus; conditions: Wild-type, Huh7 transient transfection; for EC50: read-out: EC50
[10] = Primary HCV replicon cell assay, cytotoxicity; conditions: human, HCV replicon cells (primary assay), CC50, primary assay
Procedure: as §1, §2

[11] = test system: 2.2.15 cells; assay: Cytotoxicity by neutral red dye uptake in 2.2.15 cells; conditions: confluent 2.2.15 cultures, nine daily doses, neutral red uptake
Procedure: as §3, §2

[12] = Cytotoxicity by neutral red dye uptake in AVA5 cells; assay type: cell-based; conditions: human, AVA5 cells (HCV replicon, sub-genomic CON1), Genotype 1b replicon
[13] = test system: HCV replicon, sub-genomic CON1, genotype 1b; assay: 3-day HCV replicon assay in AVA5 cells (intracellular HCV RNA, blot hybridization); assay type: cell-based, Hepatitis C Virus; conditions: for Selectivity Index / EC50 / EC90: Genotype 1b replicon; for Selectivity Index: CC50/EC50; for EC50 / EC90: 3 days, first compound listed for combinations
Procedure: as §1, §2

[14] = test system: HCV replicon genotype 1A; assay: Secondary HCV replicon cell assay, genotype 1A; assay type: cell-based, Hepatitis C Virus
Description: (§5) Table 10 presents data from the secondary HCV replicon cell assays using genotypes 1B and 1A.

[15] = test system: HCV replicon cells, genotype 1A; assay: Secondary HCV replicon cell assay, genotype 1A, cytotoxicity; assay type: cell-based
Description: as §5

[16] = test system: HCV replicon genotype 1B; assay: Secondary HCV replicon cell assay, genotype 1B; assay type: cell-based, Hepatitis C Virus
Description: as §5

[17] = test system: HCV replicon cells, genotype 1B; assay: Secondary HCV replicon cell assay, genotype 1B, cytotoxicity; assay type: cell-based
Description: as §5

[18] = test system: AVA5 cells; assay: Cytotoxicity by neutral red dye uptake in AVA5 cells; assay type: cell-based; conditions: Genotype 1b replicon, 3 days
[19] = test system: HCV replication; assay: HCV replicon assay, 6 days total duration, NTZ monotherapy pre-treatment and combination therapy; assay type: cell-based; conditions: Hepatitis C virus, 144 h, first named drug for combinations
Procedure: as §1, with “Antiviral activity of test compounds was assessed in a 3-day assay using the stably-expressing” left out
as §2

[20] = test system: HCV replicon H/FL-Neo, genotype 1a full length; assay: HCV replicon assay in Huh7 cells containing H/FL-Neo; assay type: cell-based, Hepatitis C Virus; conditions: Genotype 1a replicon
Procedure: as §1, §2

[21] = Cytotoxicity by neutral red dye uptake in Huh7 cells containing H/FL-Neo; assay type: cell-based; conditions: human; Genotype 1a replicon
[22] = Hepatitis B virus, read-out: Intracellular HBV RI EC50
[23] = Hepatitis B virus, 2.2.15 cells, nine daily doses, read-out: Extracellular virion DNA EC50
[24] = Hepatitis B virus, 2.2.15 cells, nine daily doses, read-out: Extracellular virion DNA EC90
[25] = Hepatitis B virus, 2.2.15 cells, nine daily doses, read-out: Intracellular HBV RI EC90
[26] = 2.2.15 cells, nine daily doses, read-out: Extracellular virion DNA EC50
[27] = 2.2.15 cells, nine daily doses, read-out: Extracellular virion DNA EC90

Q: For `CSc1cnc(NC(=O)c2ccccc2O)s1`, which melting point is on record?
A: 225 to 226 °C

Q: Which results are given for `CS(=O)(=O)c1csc(NC(=O)c2ccccc2O)n1` [Compound 60, 2-hydroxy-N-(4-(methylsulfonyl)thiazol-2-yl)benzamide]?
A: EC90 [1]: 0.654 µM; EC90 ([1]; Hepatitis C virus): 0.585 µM

Q: With `Nc1ccn([C@@H]2CS[C@H](CO)O2)c(=O)n1` [LMV, lamivudine] as the compound, how does the CC50 at 9 days [2] read?
A: 2350 ± 88 µM

Q: What about the “Selectivity Index Virion” value ([3]; CC50/EC90, extracellular virion DNA) of the same compound?
A: 15646

Q: And the “Selectivity Index RI” value ([3]; CC50/EC90, intracellular HBV RI)?
A: 4267

Q: What about the EC50 [3, 22] of the same compound?
A: 0.16 ± 0.03 µM

Q: What about the EC50 ([3]; Hepatitis B virus, 2.2.15 cells, Table 3 experiment, read-out: HBV R.I. EC50) of the same compound?
A: 0.16 ± 0.02 µM

Q: What about the EC90 ([3]; Hepatitis B virus, 2.2.15 cells, Table 3 experiment, read-out: HBV R.I. EC90) of the same compound?
A: 0.56 ± 0.07 µM

Q: And the EC50 ([3]; Hepatitis B virus, 2.2.15 cells, Table 3 experiment, read-out: Virion production EC50)?
A: 0.05 ± 0.01 µM

Q: What about the EC90 ([3]; Hepatitis B virus, 2.2.15 cells, Table 3 experiment, read-out: Virion production EC90) of the same compound?
A: 0.15 ± 0.02 µM

Q: And the EC50 [3, 23]?
A: 0.05 ± 0.01 µM

Q: What about the EC90 [3, 24] of the same compound?
A: 0.15 ± 0.02 µM

Q: What about the EC90 [3, 25] of the same compound?
A: 0.55 ± 0.06 µM

Q: And the EC50 ([4]; Hepatitis B virus, Huh-7)?
A: 16 ± 2 µM

Q: And the EC90 ([4]; Hepatitis B virus, Huh-7)?
A: 46 ± 5.6 µM

Q: What about the EC50 ([5]; Hepatitis B virus, Huh-7) of the same compound?
A: > 100 µM

Q: What about the EC90 ([5]; Hepatitis B virus, Huh-7) of the same compound?
A: > 100 µM

Q: And the EC50 ([6]; Hepatitis B virus, Huh-7)?
A: > 100 µM

Q: And the EC90 ([6]; Hepatitis B virus, Huh-7)?
A: > 100 µM

Q: And the EC50 ([7]; Hepatitis B virus, Huh-7)?
A: > 100 µM

Q: And the EC90 ([7]; Hepatitis B virus, Huh-7)?
A: > 100 µM

Q: What about the EC50 ([8]; Hepatitis B virus, Huh-7) of the same compound?
A: 0.3 ± 0.1 µM

Q: What about the EC90 ([8]; Hepatitis B virus, Huh-7) of the same compound?
A: 1.2 ± 0.2 µM

Q: What about the EC90 ([9]; Hepatitis B virus, Huh-7) of the same compound?
A: 0.9 ± 0.2 µM

Q: And the EC50 ([9]; Hepatitis B virus, Huh-7)?
A: 0.2 ± 0.1 µM

Q: With `CS(=O)(=O)Oc1ccccc1C(=O)Nc1nccs1` [Compound 11, 2-(thiazol-2-ylcarbamoyl)phenyl methanesulfonate] as the compound, how does the CC50 at 3 days [10] read?
A: > 100 µM

Q: What about the EC50 ([1]; Hepatitis C virus) of the same compound?
A: > 10 µM

Q: And the EC90 ([1]; Hepatitis C virus)?
A: > 10 µM

Q: And the melting point?
A: 185.5 to 187.8 °C

Q: Which results are given for `CC(C)(C)C(=O)OCOP(=O)(COCCn1cnc2c(N)ncnc21)OCOC(=O)C(C)(C)C` [ADV, adefovir dipovoxil]?
A: CC50 [11]: > 300 µM; EC50 [3, 26]: 1 ± 0.2 µM; EC90 [3, 27]: 3 ± 0.3 µM; EC50 ([4]; L180M, read-out: EC50): 2.6 ± 0.3 µM; EC90 ([4]; L180M, read-out: EC90): 7.3 ± 0.8 µM; EC50 ([5]; M204V, read-out: EC50): 1.5 ± 0.2 µM; EC90 ([5]; M204V, read-out: EC90): 7.2 ± 0.8 µM; EC50 ([6]; L180M/M204V, read-out: EC50): 2.5 ± 0.3 µM; EC90 ([6]; L180M/M204V, read-out: EC90): 7.6 ± 0.8 µM; EC50 ([7]; M204I, read-out: EC50): 2.5 ± 0.3 µM; EC90 ([7]; M204I, read-out: EC90): 8.5 ± 1 µM; EC50 ([8]; N236T, read-out: EC50): 11 ± 1.3 µM; EC90 ([8]; N236T, read-out: EC90): 32 ± 3.6 µM; EC90 [9]: 7 ± 0.8 µM; EC50 [9]: 2 ± 0.2 µM

Q: Which melting point does the source give for `CCCCSc1cnc(NC(=O)c2ccccc2OC(C)=O)s1` here?
A: 100 to 101 °C

Q: Which results are given for `CS(=O)(=O)c1cnc(NC(=O)c2ccccc2O)s1` [Compound 6, 2-hydroxy-N-(5-(methylsulfonyl)thiazol-2-yl)benzamide]?
A: CC50 at 3 days [12]: 2.8 ± 0.3 µM; Selectivity Index [13]: 74; EC50 ([13]; Hepatitis C virus, Ava5, 72 h): 0.04 ± 0.005 µM; EC90 ([13]; Hepatitis C virus, Ava5, 72 h): 0.59 ± 0.07 µM; activity against HCV ([13]; among the other thiazolides): exhibited activity; CC50 at 9 days [2]: > 100 µM; EC50 [14]: 0.8 µM; EC90 [14]: 3.4 µM; EC50 [3, 22]: > 10 µM; EC50 [3, 23]: > 10 µM; EC90 [3, 24]: > 10 µM; EC90 [3, 25]: > 10 µM; CC50 [15]: > 10 µM; CC50 at 3 days [10]: 43 µM; EC50 [16]: 0.89 µM; EC90 ([16]; Hepatitis C virus): 8.8 µM; EC50 ([1]; Hepatitis C virus): 1.5 µM; EC90 ([1]; Hepatitis C virus): 5.2 µM; CC50 [17]: > 10 µM

Q: With `Cc1ccc(C(=O)Nc2ncc(Cl)s2)c(O)c1` [RM4852] as the compound, how does the CC50 [18] read?
A: 6.7 ± 0.4 µM

Q: And the EC50 [13]?
A: > 20 µM

Q: What about the EC90 [13] of the same compound?
A: > 20 µM

Q: What about the CC50 [11] of the same compound?
A: > 100 µM

Q: What about the EC50 [3, 26] of the same compound?
A: 1 ± 0.1 µM

Q: What about the EC90 [3, 27] of the same compound?
A: 3.3 ± 0.3 µM

Q: And the EC50 ([3]; 2.2.15 cells, nine daily doses, read-out: Intracellular HBV RI EC50)?
A: 2.7 ± 0.3 µM

Q: And the EC90 ([3]; 2.2.15 cells, nine daily doses, read-out: Intracellular HBV RI EC90)?
A: 6.3 ± 0.7 µM

Q: With `C[C@@]1(O)[C@H](O)[C@@H](CO)O[C@H]1n1ccc(N)nc1=O` [2′CmeC, 2′-C-methyl cytidine] as the compound, how does the CC50 at 3 days [12] read?
A: > 300 µM

Q: What about the “Selectivity Index” value [13] of the same compound?
A: >188

Q: What about the EC50 ([13]; Hepatitis C virus, Ava5, 72 h) of the same compound?
A: 1.6 ± 0.2 µM

Q: What about the EC90 ([13]; Hepatitis C virus, Ava5, 72 h) of the same compound?
A: 8.3 ± 0.7 µM

Q: What about the EC50 [19] of the same compound?
A: 1.3 ± 0.2 µM

Q: And the EC90 [19]?
A: 5.8 ± 0.9 µM

Q: And the “Selectivity Index” value ([20]; CC50/EC50)?
A: >167

Q: And the EC50 ([20]; Hepatitis C virus, Huh-7)?
A: 1.8 ± 0.2 µM

Q: And the EC90 ([20]; Hepatitis C virus, Huh-7)?
A: 8.1 ± 0.8 µM

Q: And the CC50 at 3 days [21]?
A: > 300 µM
